Results taken from ChEMBL document CHEMBL4706475, “Multiparameter Lead Optimization to Give an Oral Checkpoint Kinase 1 (CHK1) Inhibitor Clinical Candidate: (R)-5-((4-((Morpholin-2-ylmethyl)amino)-5-(trifluoromethyl)pyridin-2-yl)amino)pyrazine-2-carbonitrile (CCT245737)” (J Med Chem, 2016).
Values after ≈ are worked out from the molar mass of the structure shown. Each block holds one compound with its values, some of them ahead of it.

Tests used:
[1] = in vivo; settings: mouse, iv, 10 mg/kg
[2] = in vivo; settings: mouse, iv, 10 mg/kg; remark: listed apart in the source
[3] = in vivo; settings: mouse, po, 10 mg/kg
[4] = in vivo; settings: mouse, iv, 10 mg/kg; remark: listed apart in the source
[5] = in vivo; settings: mouse, iv, 5 mg/kg
[6] = in vitro; settings: mouse, liver microsomes
[7] = in vivo; settings: mouse, iv, 5 mg/kg; remark: listed apart in the source
[8] = in vivo; settings: mouse, po, 5 mg/kg
[9] = in vivo; settings: mouse, iv, 5 mg/kg; remark: listed apart in the source
[10] = mouse, in vivo, po, 10 mg/kg
[11] = Lipophilicity, logD of the compound at pH 7.4 by LC-MS/MS analysis; format: physicochemical; settings: buffer
[12] = in vivo; settings: rat
[13] = in vivo; settings: rat; remark: listed apart in the source
[14] = in vivo; settings: NCr athymic, mouse, plasma, po, 300 mg/kg
[15] = in vivo; settings: rat, po
[16] = Solubility of compound in phosphate buffer at pH 6.5; format: physicochemical
[17] = Intrinsic clearance in dog hepatocytes at 3 uM assessed per million cells; format: ADME, cell-based, Canis lupus familiaris, Hepatocyte; settings: read-out: CLH
[18] = Intrinsic clearance in rat hepatocytes at 3 uM assessed per million cells; format: ADME, cell-based, Hepatocyte; settings: read-out: CLH
[19] = Basicity constant, pKa of the compound by UV metric assay; format: physicochemical
[20] = in vitro; settings: human, hepatocytes
[21] = in vitro; settings: CD-1, mouse, hepatocytes
[22] = Free drug level in NCr athymic mouse plasma xenografted with human HT-29 cells at 12.5 to 100 mg/kg, po administered as single dose measured at 24 hrs; format: ADME, organism-based; settings: in vivo, dose 12.5-100 mg/kg
[23] = Passive permeability in human Caco2 cells; format: ADME, cell-based; settings: caco-2
[24] = Metabolic stability in human liver microsomes in absence of glutathione; format: ADME, Microsome
[25] = Metabolic stability in human liver microsomes in presence of glutathione; format: ADME, Microsome
[26] = Solubility of compound in pure water; format: physicochemical

Compound: N#Cc1cnc(Nc2cc(NC[C@@H]3CNCCO3)c(C3CC3)cn2)cn1
- Vd [1]: 43.9 L/kg
- clearance [2]: 112 mL/min/kg
- bioavailability [3]: 68%
- half-life [4]: 8.1 h

Compound: COC(=O)c1cnc(Nc2cnc(C#N)cn2)cc1NCCC1CCNCC1
- clearance [5]: 141 mL/min/kg
- metabolised at 0.5 h [6]: 26%
- half-life [7]: 11 h
- bioavailability [8]: 44%
- Vd [9]: 60.5 L/kg

Now from value to compound:

- Vd [1]: 26.8 L/kg
- clearance [2]: 113 mL/min/kg
- bioavailability [3]: 53%
- half-life [4]: 4.3 h
Compound: N#Cc1cnc(Nc2cc(NC[C@H]3CNCCO3)c(-c3cccc(F)c3)cn2)cn1

- Vd [1]: 10.4 L/kg
- clearance [2]: 138 mL/min/kg
- bioavailability [3]: 10%
- half-life [4]: 3.8 h
Compound: CC(C)(O)C#Cc1cnc(Nc2cnc(C#N)cn2)cc1NC[C@@H]1CNCCO1

- Vd [1]: 9.25 L/kg
- F [10]: 105%
- clearance [2]: 44.2 mL/min/kg
- logD [11]: 1.47
- Vd [12]: 4.6 L/kg
- clearance [13]: 58.3 mL/min/kg
- concentration at 24 h [14]: 4 µM
- bioavailability [15]: 38%
- solubility [16]: 1500 µg/mL (≈ 3950 µM)
- hepatocyte CLint at 3 µM [17]: 55 µL/min/1e6 cells
- hepatocyte CLint at 3 µM [18]: 43.4 µL/min/1e6 cells
- pKa [19]: 7.87
- hepatocyte CLint at 3 µM [20]: 2.72 µL/min/1e6 cells
- hepatocyte CLint at 3 µM [21]: 25.7 µL/min/1e6 cells
- Cp(f) [22]: 0.015 µM
- permeability [23]: 25 10^-6 cm/s
- half-life [4]: 2.9 h
- Stabilty [24]: Stable
- Stabilty [25]: Stable
- solubility [26]: 90 µg/mL (≈ 237 µM)
Compound: N#Cc1cnc(Nc2cc(NC[C@H]3CNCCO3)c(C(F)(F)F)cn2)cn1 [SRA-737]
